According to US20180140572A1, “COMPOSITIONS COMPRISING A CANCER STEMNESS INHIBITOR AND AN IMMUNOTHERAPEUTIC AGENT FOR USE IN TREATING CANCER” (Boston Biomedical, Inc., priority 2015, published 2018):

Tests used:
CT26 colon tumor = assay: CT26 syngeneic murine colon carcinoma model, tumor volume; type: in vivo, BALB/c mouse; conditions: BBI608 100 mg/kg po qd
Excerpt: (§1) All BALB/c mice (Taconic, Hudson, N.Y., USA) were housed in Association for Assessment and Accreditation of Laboratory Animal Care approved facilities in static microisolator cages. Murine MSS-status colon carcinoma CT26 cells (ATCC CRL-2639) and murine breast carcinoma cells 4T1 (ATCC CRL-2539) were purchased from American Type Culture Collection (ATCC, Manassas, Va., USA), and grown in RPMI-1640 medium (ATCC) supplemented with 10% heat-inactivated fetal calf serum. After harvesting during exponential growth, tumors were initiated by subcutaneously implanting 3×10^5 CT26 tumor cells into the right dorsal flank of each 8-12 week old female BALB/c mouse. […] Body weight and clinical signs were monitored throughout the course of the treatment in accordance with the Institutional Animal Care and Use Committee approved protocols. Drug efficacy was analyzed by measuring tumor volume in mm^3 calculated by multiplying 0.5×width^2×length. […]

p-STAT3 = p-STAT3 staining of CT26 tumors after treatment; type: in vivo, mouse; conditions: vs control group
Excerpt: as §1
At the end of treatment, tumors were harvested from euthanized mice. […] After mounting in ProLong mounting medium containing DAPI (Invitrogen), the slides were examined on a Zeiss Axio Imager M2 upright fluorescence microscope with a 20× objective and analyzed with Zen software.

[1] = test system: β-CATENIN, NANOG, SMO, and SOX2; assay: Self-renewal gene expression in FaDu cancer stem cells; type: cell-based; design: dose or concentration left out as unconfirmed; conditions: 24 hours
IDO1 = IDO1 expression in ovarian cancer xenograft model (SKOV-3); type: in vivo, mouse; conditions: SKOV-3 xenograft, 0, 1, 2, 4, 8, and 24 hours
Procedure: FIG. 13A and FIG. 13B show an exemplary reduction in IDO1 expression at 0, 1, 2, 4, 8, and 24 hours after treatment of SW480 xenograft colorectal cancer cells (FIG. 13A) and SKOV3 xenograft ovarian cancer cells (FIG. 13B) with an exemplary cancer sternness inhibitor, e.g., BBI608, according to certain embodiments of the present disclosure.
At the end of treatment, tumors were harvested from euthanized mice. Part of the dissected tumors were fixed overnight in 3.7% or 10% neutral buffered formaldehyde at 4° C., and then paraffin embedded, cut to 4-5 micron sections, and affixed onto positively charged slides. After baking and deparaffinization, the slides with tumor or control tissues were incubated in a 10 mM sodium citrate solution pH=6.0 for antigen retrieval at 98° C. […] After mounting in ProLong mounting medium containing DAPI (Invitrogen), the slides were examined on a Zeiss Axio Imager M2 upright fluorescence microscope with a 20× objective and analyzed with Zen software.

## CC(=O)c1cc2c(o1)C(=O)c1ccccc1C2=O [BBI608, 2-acetylnaphtho[2,3-b]furan-4,9-dione]
CT26 colon tumor; by the end of treatment (11 days)
  tumor growth inhibition: 76%
CT26 colon tumor; anti-PD-1 antibody 10 mg/kg iv q4d, 11 days
  anti-tumor activity (tumor volume course): lasting anti-tumor activity
p-STAT3
  p-STAT3 level in CT26 tumors: reduced p-STAT3 levels
[1]
  expression of self-renewal genes β-CATENIN, NANOG, SMO, and SOX2: decreased expression
IDO1
  IDO1 expression level: reduced the IDO1 expression level in a time-dependent manner
